Source: patent US20230338391A1, “TREATMENT FOR DEPRESSION” (TAKEDA PHARMACEUTICAL COMPANY LIMITED, priority 2020, published 2023)
Entries after “also recorded” stand apart in the source; their conditions may differ.

How the values were obtained:
[1] = tested on: CNS excitability; experiment: TMS crossover study of CNS PD activity in healthy subjects
[2] = Population PK modeling and simulation; design: species or system human
Description: Data processing and graphical visualization was performed using Matlab (version R2019a; The MathWorks, Inc., Natick, Massachusetts, United States).
The Stochastic Approximation of Expectation Maximization (SAEM) algorithm, a stochastic algorithm for calculating the maximum likelihood estimator, was selected as model-estimation method for its ability to accurately estimate population parameters.
Model building and selection was based on the following criteria/procedures: • Evaluation of individual and population parameter estimates and their precision (precision was quantified using the percentage of relative standard error (% RSE)); • Graphical examination of diagnostic and goodness-of-fit plots; • Analysis of correlation matrix of the estimates and condition number; • Reduction in both residual variability and inter-individual variability; and • Reduction in log likelihood (−2LL), Akaike Information Criterion (AIC) and Bayesian Information Criterion (BIC) for all nested models.
The base model was built by using these criteria to compare different structural models (e.g., one-compartment, two-compartment, three-compartment) with different absorption (e.g., zero order, first order) and elimination (e.g., linear, nonlinear) processes. Development of the base model was performed by adding inter-individual variability (IIV) on one structural parameter at a time and applying the set criteria to select the best model. IIV was generally modeled as an exponential term as follows:
A covariate model was then built to further reduce the unexplained inter-individual variability. Development of the covariate model was performed using the forward selection and backward elimination method. In the forward selection step, covariates were tested one at the time. […] In the backward elimination step, covariates were eliminated one at the time and changes in −2LL recorded.
The final model was evaluated using a visual predictive check, a simulation-based method to visually assess concordance of the model-based simulations and observed data. Bootstrap analysis was also performed to determine the precision of the parameter estimates, estimate confidence interval of identified parameters and assess the stability of the model. […]

[3] = tested on: MEPs; experiment: Nonclinical MEP amplitude in rats; format: in vivo; conditions: nonclinical data
[4] = tested on: Sprague-Dawley rats; experiment: in vivo; conditions: female, rat, 200 mg/kg/day, 14 days
Description: (§1) An appropriate amount of methylcellulose (MC) was weighed and mixed with a small amount of warm water for injection. The mixture was then diluted with water for injection to make a 0.5% (w/v) MC solution. The vehicle was used for dosing in the control group. To make a 40 mg/mL suspension of COMPOUND A, an appropriate amount of the test article was weighed and mixed with the vehicle using a planetary centrifugal mixer and the mixture was then diluted with additional vehicle. The 40 mg/mL suspension was used to make 20 and 10 mg/mL suspensions by stepwise dilutions with the vehicle. The dosing suspensions were stored in a refrigerator (actual values: 3.7° C. to 6.1° C., acceptable range: 2° C. to 8° C.) under light-resistant conditions (tight container) and used within 8 days after preparation.
(§2) Males and females in good condition were selected for this study based on examinations within 4 days before the first dosing. Based on their body weights, animals were stratified and allocated randomly to 3 main study groups, each composed of 18 males and 18 females, and 2 satellite groups each composed of 9 males and 9 females for determination of plasma drug and metabolite concentrations. Surplus animals after animal selection were excluded from the study on the day after the animal selection or the day dosing commenced (Day 1).
(§3) The behavior of the high-dose main study and TK satellite groups was video-recorded continuously throughout the dosing period (until the morning on the day of necropsy) under non-GLP conditions. The video-recorded images were kept on a hard drive and were archived as study data. […]
(§4) Each animal was weighed pre-dose using electronic balances (PB3002-S; Mettler-Toledo K.K. and UX4200H; Shimadzu Corporation) on Days 1, 2, 4, 7, 11, and 14 during the dosing period. Body weights were also measured for all animals on the day of necropsy on Days 3, 8, and 15, and these terminal body weight values were also used for calculation of the amount of anesthesia. […]

[5] = in vivo; design: species or system Sprague-Dawley rats; conditions: both sexes, Sprague-Dawley, rat, po
Description: as §1, §2, §3, §4

[6] = 0.5 mg and 6 mg single oral doses
[7] = final POPPK model, inter-individual variability
[8] = final POPPK model, residual error

CC1=CN2CCS(=O)(=O)N=C2C(c2ccc(OC3CCCCC3)cc2)=N1 [COMPOUND A, 9-[4-(Cyclohexyloxy)phenyl]-7-methyl-3,4-dihydropyrazino[2,1-c][1,2,4]thiadiazine 2,2-dioxide]
SICI measurements and other secondary endpoints [1, 6]: not statistically significant
changes from baseline in the rMT, single-pulse TMS [1, 6]: not statistically significant
change from baseline of LICI 300 ms ([1]; 0.5 mg single oral dose, 2.5 hours post-dose): statistically significant PD effect
peak-to-peak amplitude of the MEP, single-pulse TMS, change from baseline vs placebo ([1]; 6 mg single oral dose, 2.5 hours post-dose, stimulation intensity 120% of baseline rMT): statistically significant difference from baseline when compared with placebo; also recorded: statistically significant PD effect
Additive Error, median bootstrap parameter estimate ([2]; bootstrap analysis): 0.34 SD
CL/F_IIV, median bootstrap parameter estimate ([2]; bootstrap analysis): 61.97 % CV
KA IIV, median bootstrap parameter estimate ([2]; bootstrap analysis): 97.18 % CV
Proportional Error, median bootstrap parameter estimate ([2]; bootstrap analysis): 37.72 % CV
TLag IIV, median bootstrap parameter estimate ([2]; bootstrap analysis): 67.78 % CV
V/F_IIV, median bootstrap parameter estimate ([2]; bootstrap analysis): 33.27 % CV
CL/F_IIV, population parameter estimate [2, 7]: 62.53 % CV
KA IIV, population parameter estimate [2, 7]: 98.99 % CV
TLag IIV, population parameter estimate [2, 7]: 69.17 % CV
V/F_IIV, population parameter estimate [2, 7]: 33.77 % CV
Additive Error, population parameter estimate [2, 8]: 0.35 SD
Proportional Error, population parameter estimate [2, 8]: 37.56 % CV
amplitude of MEPs [3]: increases the amplitude of MEPs in rats
cerebellar Purkinje cell histopathology (HE, Fluoro-Jade) [4]: necrosis and/or Fluoro-Jade positive staining of Purkinje cells (dendrites, cell bodies, or axons) in 3 rats
tonic convulsions (video recordings) [4]: tonic convulsions in 2 rats
NOAEL at 14 days [5]: 100 mg/kg/day
